# In US20090054510A1, “METHOD FOR IDENTIFYING COMPOUNDS FOR THE TREATMENT OF DEPRESSION” (H. LUNDBECK A/S, priority 2006, published 2009):
# Key:
# hSERT [1] = target: T1, hSERT (Homo sapiens, UniProt P31645); assay: [3H]-(S)-citalopram dissociation from SERT (allosteric site binding)
# T1 construct: expressed in transfected cells; host or cells: HEK293 cells expressing hSERT; membranes
# Procedure: The assay procedure was modified based on the methods described in Pharmacol. Toxicol., 80, 197-201, 1997 and J.Neurochem., 92, 21-28, 2005.
# PeakRapid 293 cells (Edge Biosystems, Gaithersburg, Md.) were cultured in Dulbecco's Modified Eagle Medium (DMEM) supplemented with 10% bovine calf serum, 4 mM L-glutamine, 100 units/ml penicillin and 100 μg/ml streptomycin) at 37° C., 5% CO2. Human SERT cDNA in a mammalian expression vector was transiently transfected into PeakRapid 293 cells using 10 μg total DNA in 150 cm2 flasks by lipofectamine method (Invitrogen, Carlsbad, Calif.). Two days after transfection, membranes were harvested.
# Binding assays were conducted in buffer containing 50 mM Tris, 120 mM NaCl, and 5 mM KCl, PH 7.4. Prior to dissociation binding, [3H]-(S)-citalopram (40 nM) was incubated with hSERT membranes (5 ug/10 ul) for 2 hours at room temperature. The reaction mixture was dispensed into 96 well format minitubes at 10 ul/well and kept on ice. […] Bound ligand was counted using a Trilux counter.
# Dissociation binding data were analyzed using GraphPad Prism 4 (GraphPad, San Diego, Calif.) and Xlfit 4 (IDBS, Guildford, Surrey, UK). […] The ratios (k/k0) of the rate (k) in the presence compounds over the rate (k0) in the absence of compounds were calculated for each compound concentration. […]
# hSERT [2] = target: T1, hSERT; format: binding; settings: increasing concentrations of (R)-citalopram; FIG. 2
# Procedure: Association rates are determined on membrane preparations from HEK293 cells transiently expressing hSERT. The kinetics of the association of the [^3H]compound- SERT complex is determined after incubation of aliquots consisting of 10 μg membranes from HEK293 cells transiently expressing hSERT and 290 μL [^3H]test compound pre incubated until equilibrium. Association is initiated by addition of radioligand in the absence or presence of R-citalopram (0-300 μM). Bound [^3H]test compound is measured after 0, 2, 5, 10, 15, 20, 30, 50, 70 and 90 minutes.
# HEK293 cells expressing hSERT are harvested and 10 μg HEK293-hSERT membrane is placed in each well in a 96 well microtiter plate. […] Concentration of test-compounds is varied from the nM to the μM range. Incubation-time is 0, 2, 5, 10, 15, 20, 30, 50, 70 and 90 minutes on ice or at room temperature (22° C.). Mebranes are harvested in ice-cold ELGA-water onto a GF/C fiberglass filter (Presoaked with 0.5% PEI for 30 min). Filters are rinsed twice with 2×0.5 ml ice-cold ELGA-water. The filters are dried and added 40 L of scintillation fluid.
# [3] = tested on: extracellular serotonin in the ventral hippocampus; assay: Microdialysis in rats, single administration ± (R)-citalopram; format: in vivo, rat; settings: FIG. 3
# Procedure: (§1) Male Sprague-Dawley rats, initially weighing 275-300 g, are used
# (§2) Rats are anaesthetised with hypnorm/dormicum (2 ml/kg) and intracerebral guide cannulas (CMA/12) are stereotaxically implanted into the hippocampus, aiming to position the dialysis probe tip in the ventral hippocampus (co-ordinates: 5.6 mm posterior to bregma, lateral −5.0 mm, 7.0 mm ventral to dura or in the frontal cortex (co-ordinates: 3.2 mm anterior to bregma; lateral, 0.8 mm; 4.0 mm ventral to dura). Anchor screws and acrylic cement are used for fixation of the guide cannulas. The body temperature of the animals is monitored by rectal probe and maintained at 37° C. The rats are allowed to recover from surgery for 2 days, housed singly in cages. On the day of the experiment, a microdialysis probe (CMA/12, 0.5 mm diameter, 3 mm length) is inserted through the guide cannula.
# (§3) The probes are connected via a dual channel swivel to a microinjection pump. Perfusion of the microdialysis probe with filtered Ringer solution ([…], 3 mM KCl, 1 mM MgCl2, 1.2 mM CaCl2) is begun shortly before insertion of the probe into the brain and continued for the duration of the experiment at a constant flow rate of 1 μL/min. After 180 min of stabilisation, the experiments are initiated. Dialysates were collected every 20 min. […]
# (§4) Concentration of 5-HT in the dialysates is analysed by means of HPLC with electrochemical detection. […]
# [4] = tested on: extra cellular serotonin levels (ventral hippocampus); assay: 3-day microdialysis in rats (minipumps); format: in vivo, rat; settings: 4 mg/kg vs 10 mg/kg (S)-citalopram, oxalate salts, FIG. 4
# Procedure: as §1, §2, §3, §4
# T1 sequence (P31645 whole entry): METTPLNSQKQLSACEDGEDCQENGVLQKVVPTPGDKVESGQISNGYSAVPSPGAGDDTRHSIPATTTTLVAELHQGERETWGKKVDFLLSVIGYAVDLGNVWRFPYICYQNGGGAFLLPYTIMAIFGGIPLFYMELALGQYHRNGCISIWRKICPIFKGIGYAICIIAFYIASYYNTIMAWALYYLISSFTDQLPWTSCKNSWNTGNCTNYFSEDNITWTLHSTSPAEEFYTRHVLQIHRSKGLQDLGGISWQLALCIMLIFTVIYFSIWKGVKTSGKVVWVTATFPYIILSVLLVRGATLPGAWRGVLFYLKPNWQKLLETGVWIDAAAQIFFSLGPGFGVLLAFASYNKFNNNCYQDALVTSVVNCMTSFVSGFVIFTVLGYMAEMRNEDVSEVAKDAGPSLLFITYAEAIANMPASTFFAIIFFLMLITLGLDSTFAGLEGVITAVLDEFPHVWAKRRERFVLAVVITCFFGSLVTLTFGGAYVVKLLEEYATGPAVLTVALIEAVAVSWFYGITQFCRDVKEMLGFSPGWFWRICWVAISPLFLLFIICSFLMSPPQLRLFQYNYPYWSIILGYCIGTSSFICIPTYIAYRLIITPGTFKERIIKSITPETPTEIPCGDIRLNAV
smiles,measurement,setting,value
CNCc1ccccc1Sc1c[nH]c2cc(F)ccc12 [[2-(6-Fluoro-1H-indol-3-ylsulfanyl)-benzyl]-methyl-amine],slowing of 3H (S)-citalopram dissociation rate (fold modulation),hSERT [1]; at 200 μM,5.4 fold
same,IC50,"hSERT [1]; hSERT membranes, [3H]-(S)-citalopram 40 nM, room temperature, N=2, read-out: IC50 of binding to an allosteric site (from k/k0 of 3H-(S)-citalopram dissociation)",26 µM
same,effect of (R)-citalopram on association of the [3H] ligand to SERT,hSERT [2],almost unaffected by (R)-citalopram
same,extracellular serotonin in the ventral hippocampus,[3],significant increase
same,effect of concomitant (R)-citalopram on the increase in extracellular serotonin,[3]; ventral hippocampus,not affected by concomitant administration of (R)-citalopram
same,increase in serotonin levels compared with (S)-citalopram,[4],faster and more pronounced increase in the serotonin levels than (S)-citalopram
